Test results published in publication PMC10590756, “Glutarate regulates T cell metabolism and anti-tumour immunity” (Nature Metabolism, 2023).

Key:
[1] = target: T1, PDHE2 lipoate in human CD8^+ T cells (Homo sapiens, UniProt P10515); experiment: PDHE2 lipoate western blot; format: cell-based; conditions: 500 µM DEG, 24 h
T1 construct: We treated human CD8^+ T cells with DEG and observed reduced PDHE2 lipoate level; endogenous in cells; host or cells: primary human CD8+ T cells
Experimental: Lipoic acid western blotting was performed as above with the following alterations: blocking buffer and secondary antibody buffer (5% milk plus 1% fatty acid free bovine serum albumin (BSA) (catalogue no. BP9704100, Thermo Fisher Scientific) prepared in PBS plus 0.05% Tween-20); and primary antibody buffer (2% fatty acid free BSA prepared in PBS plus 0.05% Tween-20). Lipoic acid antibody was used at a concentration of 1:2,000 (catalogue no. 437695, Sigma-Aldrich). Data were analysed using the iBright Analysis Software v.4.0.1 or ImageJ.

PDHc = target: T2, PDHc (Homo sapiens, UniProt P10515); experiment: PDHc activity assay on CD8^+ T cell lysates; format: cell-based; conditions: 500 µM DEG
T2 construct: we performed a direct enzymatic activity assay of the PDHc on CD8^+ T cell lysates; endogenous in cells; host or cells: human CD8+ T cells, lysate (activity kit MAK183, Sigma-Aldrich)
Experimental: PDHc activity was determined using a PDHc Activity Assay Kit (catalogue no. MAK183, Sigma-Aldrich). A total of 1 × 10^6 cells were used per reaction and the assay was performed according to the manufacturer’s instructions. Activity was normalized to total protein concentration. Data were acquired on a FLUOstar Omega (BMG Labtech).

[2] = tested on: primary murine CD8^+ T cells; experiment: Screen of T cell differentiation: CD62L/CD44 populations by flow cytometry; format: cell-based, mouse
From the text: We first sought to investigate if compounds structurally related to 2HG could increase the TCM population of CD8^+ T cells. To carry out this analysis, we identified 19 structural analogues of 2HG; eight were commercially available and 11 were synthesized de novo for the purposes of this study (Table 1). We used esterified versions of most of the compounds used, so as to increase both potency and intracellular translocation. The octyl ester form of S-2HG was used as a positive control in these assays. We screened the compounds for effects on T cell differentiation at 400-µM levels (using the efficacy of S-2HG in CD8^+ T cells as a guide[11]) in culture media during the process of activation of isolated primary murine CD8^+ T cells.
After 7 days of culture, we assessed the abundance of CD62L^hiCD44^hi (TCM-like) T cells by flow cytometry (Fig. 1a). We additionally determined the effect of each compound on cell growth and viability (Fig. 1b and Extended Data Fig. 1a).
Mouse CD8^+ T cells were isolated from mouse spleens using positive selection. Incubation with microbeads conjugated to monoclonal anti-mouse CD8α (Ly-2; isotype: rat IgG2a) antibody (catalogue no. 130-049-401, Miltenyi Biotec) was followed by magnetic bead isolation on a MACS column. WT mouse CD8^+ T cells were activated with anti-mouse CD3/CD28 Dynabeads (catalogue no. 11453D, Thermo Fisher Scientific) at a 1:1 cell:bead ratio. Purified OT1 CD8^+ T cells were activated with 1 µg ml^−1 of the OVA-derived peptide SIINFEKL (ProImmune). All mouse CD8^+ T cells were cultured in complete RPMI 1640 supplemented with 10% FCS, 100 U ml^−1 penicillin, 100 µg ml^−1 streptomycin, 55 µM 2-ME (catalogue no. 21985023, Gibco) and 10 U ml^−1 IL-2.
Single-cell suspensions were stained with LIVE/DEAD Fixable Near-IR Dead Cell Stain Kit (catalogue no. 10119, Thermo Fisher Scientific) followed by surface and intracellular staining with fluorochrome-labelled antibodies (Supplementary Tables 1 and 2). […]

Compound: CCOC(=O)CCCC(=O)OCC [DEG, Diethyl glutarate]
- PDHE2 lipoate level [1]: reduced
- PDHc activity, acute exposure (PDHc; 30 min): decreased PDHc activity
- PDHc activity, chronic exposure (PDHc; seven day): decreased PDHc activity
- abundance of CD62L^hiCD44^hi (TCM-like) CD8^+ T cells ([2]; 400 µM test compound, 7 days of culture): significantly increased
- effector memory T (TEM) cell population (CD62L^loCD44^hi) ([2]; 7 days of culture with DEG): decreased
- CD62L^hiCD44^hi TCM population ([2]; increasing concentrations of DEG, 7 days): increased the CD62L^hiCD44^hi TCM population in a dose-dependent manner
